What was measured:
[1] = system: primary mouse oligodendrocyte precursor cells; assay: In vitro differentiation of primary mouse OPCs (MBP/O4 immunostaining, MBP western blot); format: cell-based; conditions: for Relative MBP protein expression (ratio MBP to β-actin), western blot: treatment day 0, 2, 4, 6 days, compared to vehicle; for MBP protein expression (IHC), dose dependence / MBP/O4 ratio, dose dependence: Roflumilast 5, 10 μM, Gebr32a 0.5, 1, 5 μM, BPN14770 0.1-10 μM, day 6
Protocol: (§1) FIG. 3: Inhibition of PDE4 by roflumilast induces differentiation of primary mouse oligodendrocyte precursor cells. Primary mouse oligodendrocyte precursor cells (OPCs) were isolated from p0 C57bl6 pups using the shake off method at day 0. Primary OPCs (150.000 cells/condition) were cultured and stimulated with vehicle (0.1% DMSO) or the PDE4 inhibitor Roflumilast (5 μM, or 10 μM) in 0.1% DMSO. Treatment was repeated on day 2 and day 4, applying a 40% medium change. Cells were fixated at day 6 and stained for O4, a late OPC marker and MBP, an oligodendrocyte marker.
(§2) For western blot, primary OPCs (500.000 cells/condition) were cultured and stimulated with vehicle (0.1% DMSO) or the PDE4 inhibitor Roflumilast (5 μM) in 0.1% DMSO. Treatment was repeated on day 2 and day 4, applying a 40% medium change. […] IHC Data were analyzed using a non-parametric Kruskal-Wallis test with Dunn's multiple comparisons test was performed; p<0.05=*; n=4/group. Western blot data were analyzed using a non-parametric Mann-Withney test; p<0.05; n=4/group.
as §1, with “4:” for “3:”, “PDE4D” for “PDE4”, “Gebr32a” for “roflumilast”, “Gebr32a (0.5” for “Roflumilast (5”, “μM, 1 μM” for “μM,”, “5” for “10”
as §2, with “PDE4D” for “PDE4”, “Gebr32a” for “Roflumilast”
FIG. 5: Inhibition of PDE4D by BPN14770 induces differentiation of primary mouse oligodendrocyte precursor cells. Primary mouse oligodendrocyte precursor cells (OPCs) were isolated from p0 C57bl6 pups using the shake off method at day 0. Primary OPCs (150.000 cells/condition) were cultured and stimulated with vehicle (PBS) or the PDE4D inhibitor BPN14770 (0.1 μM, 0.3 μM, 1 μM, 3 μM and 10 μM) in PBS. Treatment was repeated on day 2 and day 4, applying a 40% medium change. Cells were fixated at day 6 and stained for O4, a late OPC marker and MBP, an oligodendrocyte marker.
Mixed glial cultures were prepared from postnatal day 2 mouse cerebral cortices of C57BLl/6JOIaHsd animals and used to generate OPC-enriched glial cultures by separating the OPCs from the astrocyte monolayer by orbital shaking followed by purification by differential adhesion to plastic. Purified OPCs were seeded on poly-L-lysine (5 μg/ml; Sigma-Aldrich, Bornem, Belgium) coated plates or glass cover slides for staining. Isolated OPCs were plated in 24-well plates (150,000 cells/well Greiner Bio-One, Frickenhausen, Germany) for immunocytochemistry or in 6-well plates (500,000 cells/well Greiner Bio-One, Frickenhausen, Germany) for western blot analyses. OPCs were induced to differentiate for 6 days with Roflumilast (5 μM and 10 μM), Gebr32 (0.5, 1 and 5 μM) or vehicle (DMSO) in SATO-medium supplemented with 2% horse serum (Sigma-Aldrich). Treatment was repeated on day 2 and 4, applying a 40% medium change. All plates were at 37° C. and 8.5% C02.
Western blot was used to assess the total MBP production by OPC treated with roflumilast or Gebr32a compare to the vehicle group. Equal amount of protein sample was separated by 10% sodium dodecyl sulfate polyacrylamide gel electrophorese and blotted onto a PVDF membrane (GE Healthcare, Buckinghamshore, UK). […]

mice with EAE = assay: Experimental autoimmune encephalomyelitis (EAE) clinical score; format: in vivo, mouse; conditions: prophylactic, 27 days
Protocol: Fifty-six ten-weeks-old female C57bl6 mice were immunized in the flank and neck with 200 μg/mouse MOG35-55 peptide (Hooke) emulsified in Complete Freund's Adjuvant containing Mycobacterium tuberculosis. Immediately after immunization, treatment was started and lasted for 27 days. Treatment consisted of twice a day a s.c. injection with a 1% DMSO in 0.5% methylcellulose solution, roflumilast (0.3 mg/kg or 3 mg/kg in vehicle) or gebr32a (0.3 mg/kg in vehicle). All animals were sacrificed at day 27. Animals were neurologically scored for clinical signs on a daily basis using the following scores: 0=normal behavior, 0.5=distal limp tail, 1=complete limp tail, 2=limp tail and hind leg inhibition, 2.5=limp tail and weakness of hind legs, 3=limp tail and dragging of hind legs, 3.5=limp tail, complete paralysis of hind legs and animal is unable to right itself when placed on its side, 4=limp tail, complete hind leg paralysis and partial front leg paralysis, 4.5=limp tail, complete hind leg paralysis, partial front leg paralysis and no movement around the cage, 5=death.
Ten-weeks-old female C57bl6 mice (n=56) were immunized in the flank and neck with 200 μg/mouse MOG35-55 peptide (Hooke) emulsified in Complete Freund's Adjuvant containing Mycobacterium tuberculosis. Immediately after immunization, treatment was started and lasted for 27 days. […]

SMILES | Relative MBP protein expression (ratio MBP to β-actin), western blot ([1]; 5 μM) | MBP protein expression (IHC), dose dependence [1] | MBP/O4 ratio, dose dependence [1] | Clinical score of EAE mice (mice with EAE; 0.3 mg/kg s.c. twice a day) | Relative MBP protein expression, IHC ([1]; 5 μM, fixated at day 6, compared to vehicle) | Disease score of EAE mice, dose dependence (mice with EAE; 0.3 mg/kg and 3 mg/kg s.c. twice a day)
OC(CN1CCOCC1)Cn1ccc(-c2ccc(OC(F)F)c(OC3CCCC3)c2)n1 (stereo not drawn) [Gebr32a] | three-fold increase | dose-dependent increase | dose-dependent increase | no effect | – | –
O=C(Nc1c(Cl)cncc1Cl)c1ccc(OC(F)F)c(OCC2CC2)c1 [roflumilast] | three-fold increased | increased dose-dependently | increased dose-dependently | – | three-fold increased | dose-dependent decrease in disease score

Source: patent US20210145838A1, “SELECTIVE PDE4D INHIBITORS AGAINST DEMYELINATING DISEASES” (Universiteit Hasselt, priority 2018, published 2021)
